Measurements as given in ChEMBL document CHEMBL1201862, “PubChem BioAssay data set” (2004).
Each block holds one compound with its values, some of them ahead of it. Active and inactive are the calls of the source.

Experiments:
[1] = cytotoxicity in HEK-293T cells, dose response, cytotoxicity control for TCR NF-kB inhibitor project, luminescence, T-cell screen hits (AID 489026); type: functional, cell-based;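 note: cells exposed to compound about 14 hours before the viability readout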
[2] = molecular target: T1, Histone-lysine N-methyltransferase NSD2 (Homo sapiens, UniProt O96028); type: biochemical
T1 sequence (O96028 whole entry): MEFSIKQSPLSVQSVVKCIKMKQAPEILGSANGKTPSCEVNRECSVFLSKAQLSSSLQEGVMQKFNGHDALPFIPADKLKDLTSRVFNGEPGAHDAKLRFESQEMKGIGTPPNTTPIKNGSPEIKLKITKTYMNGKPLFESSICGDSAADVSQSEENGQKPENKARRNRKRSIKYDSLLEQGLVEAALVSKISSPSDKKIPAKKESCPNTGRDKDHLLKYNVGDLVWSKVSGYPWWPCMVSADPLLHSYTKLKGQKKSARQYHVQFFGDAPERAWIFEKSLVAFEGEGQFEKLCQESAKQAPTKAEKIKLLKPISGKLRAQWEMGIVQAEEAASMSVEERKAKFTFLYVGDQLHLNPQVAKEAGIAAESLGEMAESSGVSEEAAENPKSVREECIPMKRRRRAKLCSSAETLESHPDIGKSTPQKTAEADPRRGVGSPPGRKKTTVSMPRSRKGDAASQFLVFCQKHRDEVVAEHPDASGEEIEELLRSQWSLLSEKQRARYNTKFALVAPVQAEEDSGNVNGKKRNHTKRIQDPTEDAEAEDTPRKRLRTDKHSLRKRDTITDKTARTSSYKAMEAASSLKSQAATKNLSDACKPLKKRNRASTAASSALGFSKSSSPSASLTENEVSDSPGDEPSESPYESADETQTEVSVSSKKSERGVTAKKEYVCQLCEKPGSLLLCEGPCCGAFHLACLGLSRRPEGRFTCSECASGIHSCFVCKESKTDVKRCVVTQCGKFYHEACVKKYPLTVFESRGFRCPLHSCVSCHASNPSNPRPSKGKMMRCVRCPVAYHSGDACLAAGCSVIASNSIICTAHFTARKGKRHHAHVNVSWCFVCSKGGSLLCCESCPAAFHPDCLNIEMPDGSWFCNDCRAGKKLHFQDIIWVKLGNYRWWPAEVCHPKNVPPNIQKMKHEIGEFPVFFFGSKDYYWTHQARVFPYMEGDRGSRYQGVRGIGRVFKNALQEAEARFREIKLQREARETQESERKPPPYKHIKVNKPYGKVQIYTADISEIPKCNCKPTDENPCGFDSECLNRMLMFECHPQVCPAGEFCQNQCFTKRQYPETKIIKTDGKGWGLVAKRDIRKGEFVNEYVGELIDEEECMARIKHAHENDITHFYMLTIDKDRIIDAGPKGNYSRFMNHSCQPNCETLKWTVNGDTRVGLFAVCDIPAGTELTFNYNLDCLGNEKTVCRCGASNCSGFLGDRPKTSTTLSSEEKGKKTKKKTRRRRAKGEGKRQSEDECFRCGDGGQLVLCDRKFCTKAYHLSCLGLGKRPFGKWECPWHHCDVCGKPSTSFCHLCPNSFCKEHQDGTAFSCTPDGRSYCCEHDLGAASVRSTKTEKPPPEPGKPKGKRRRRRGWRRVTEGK

H9c2 = experiment: cells; type: functional, cell-based; conditions: Rattus norvegicus, H9c2, Myocardium;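 note: confirmatory concentration-response retest of ultra-high-throughput screening hits for modulation of myocardial damage; cell death induced by hydrogen peroxide oxidative stress; compound pretreatment for 60 min then peroxide exposure for 2 h; potency is for protecting the cells against peroxide damage rather than for killing them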
[3] = growth suppression of PTEN-null colon cells, dose response, cell-based, HCT116 PTEN knockout (AID 1047); type: functional;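 note: HCT116 colon tumor cells with PTEN knocked out; cells exposed to compound for 60 hours before readout; potency for loss of cell viability measured by luminescence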
[4] = growth suppression of beta-catenin-knockout colon cells, dose response, cell-based, HCT116, human colon tumor (AID 1045); type: functional;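 note: HCT116 colon tumor cells with beta catenin knocked out; cells exposed to compound for 60 hours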
[5] = cytotoxicity toward NIH3T3 fibroblasts, dose response, counter-screen, cell-based, ATP luminescence, mouse fibroblasts (AID 2010); type: functional;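 note: cells exposed to compound for about 90 hours before reading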
[6] = inhibitors of intracellular T. cruzi replication, confirmation, NIH3T3 host cells, beta-gal luminescence (AID 2044); type: functional, cell-based;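 note: intracellular parasites grown in NIH/3T3 mouse fibroblasts as host cells; luminescent beta-galactosidase reporter signal from transgenic T. cruzi replicating inside host cells; inhibitors lower the luminescence signal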
[7] = off-target signal loss in HeLa-CEM21 co-culture – HeLa F-luc CTL cells, cherry-picked, counter-screen for HIV-1 Env fusion inhibitor project, dose response (AID 652040); type: functional, cell-based;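 note: potency for signal decrease marking cytotoxic or nonspecific inhibition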
[8] = inhibitors of HIV Env-driven cell fusion, dose response, cherry-pick (AID 652057); type: functional, cell-based
[9] = ZM109 Env clade C HIV-1 fusion inhibitors, dose response, HeLa effector, CEM target cells, luciferase, cherry-pick (AID 652058); type: functional, cell-based
[10] = inhibitors of clade B AD8 Env fusion, dose response, cell-based, cherry-pick (AID 652062); type: functional;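 note: luciferase signal from cell-cell fusion driven by HIV-1 clade B AD8 Env; potency is for inhibitors of fusion seen as a drop in luminescence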
INS1 = experiment: beta cell apoptosis inhibitors, cytokine rescue, dose response, luminescence, retest (AID 449756); type: functional, cell-based; conditions: Rattus norvegicus;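 note: cell death triggered by IL-1 beta plus TNF-alpha plus IFN-gamma mixture; protective hits raise ATP signal compared with cytokine alone wells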
Genome polyprotein = Genome polyprotein (dengue virus type 2, UniProt P29990); experiment: Dengue-2 NS5 methyltransferase inhibitors, primary screen, biochemical, confirmation dose response (AID 588689); type: functional
Chain of Genome polyprotein (P29990 2492-3391 limits assumed): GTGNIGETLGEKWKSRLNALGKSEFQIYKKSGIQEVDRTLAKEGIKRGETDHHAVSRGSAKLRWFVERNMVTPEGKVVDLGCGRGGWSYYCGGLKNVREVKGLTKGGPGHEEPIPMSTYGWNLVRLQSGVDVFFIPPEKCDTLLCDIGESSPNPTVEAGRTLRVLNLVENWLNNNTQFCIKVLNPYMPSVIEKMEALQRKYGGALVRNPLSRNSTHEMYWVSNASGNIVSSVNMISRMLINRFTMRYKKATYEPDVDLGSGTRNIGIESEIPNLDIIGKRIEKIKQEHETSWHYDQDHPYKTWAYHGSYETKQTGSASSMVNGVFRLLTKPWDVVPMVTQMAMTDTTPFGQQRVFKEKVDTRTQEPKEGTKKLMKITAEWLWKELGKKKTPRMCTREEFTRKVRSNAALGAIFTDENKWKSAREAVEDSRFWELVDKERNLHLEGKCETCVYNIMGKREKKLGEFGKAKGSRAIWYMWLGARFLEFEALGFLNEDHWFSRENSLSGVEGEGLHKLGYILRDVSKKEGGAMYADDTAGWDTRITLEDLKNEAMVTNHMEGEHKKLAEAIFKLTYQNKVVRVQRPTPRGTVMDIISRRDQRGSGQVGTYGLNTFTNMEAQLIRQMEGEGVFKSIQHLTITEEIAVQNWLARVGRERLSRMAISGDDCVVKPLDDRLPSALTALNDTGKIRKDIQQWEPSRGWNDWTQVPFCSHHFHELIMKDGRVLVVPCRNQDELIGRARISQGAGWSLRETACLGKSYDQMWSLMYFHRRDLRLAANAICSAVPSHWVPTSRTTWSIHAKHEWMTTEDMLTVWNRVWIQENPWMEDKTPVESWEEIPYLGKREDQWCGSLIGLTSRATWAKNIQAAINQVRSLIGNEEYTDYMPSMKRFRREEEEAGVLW

[11] = molecular target: Induced myeloid leukemia cell differentiation protein Mcl-1 (Homo sapiens, UniProt Q07820); type: functional
Chain of Induced myeloid leukemia cell differentiation protein Mcl-1 (Q07820 whole entry): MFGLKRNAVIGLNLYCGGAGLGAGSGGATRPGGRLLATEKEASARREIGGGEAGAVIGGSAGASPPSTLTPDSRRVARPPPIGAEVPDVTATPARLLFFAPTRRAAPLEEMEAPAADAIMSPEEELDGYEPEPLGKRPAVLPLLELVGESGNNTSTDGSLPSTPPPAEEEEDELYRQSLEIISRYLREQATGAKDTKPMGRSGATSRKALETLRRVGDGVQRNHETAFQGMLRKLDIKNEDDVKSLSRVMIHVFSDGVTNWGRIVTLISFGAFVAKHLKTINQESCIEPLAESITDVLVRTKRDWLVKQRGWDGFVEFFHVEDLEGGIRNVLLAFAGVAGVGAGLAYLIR

Cytochrome P450 2D6 = Cytochrome P450 2D6 (Homo sapiens, UniProt P10635);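 note: CYP2D6 member of a cytochrome P450 panel assay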
Chain of Cytochrome P450 2D6 (P10635 whole entry): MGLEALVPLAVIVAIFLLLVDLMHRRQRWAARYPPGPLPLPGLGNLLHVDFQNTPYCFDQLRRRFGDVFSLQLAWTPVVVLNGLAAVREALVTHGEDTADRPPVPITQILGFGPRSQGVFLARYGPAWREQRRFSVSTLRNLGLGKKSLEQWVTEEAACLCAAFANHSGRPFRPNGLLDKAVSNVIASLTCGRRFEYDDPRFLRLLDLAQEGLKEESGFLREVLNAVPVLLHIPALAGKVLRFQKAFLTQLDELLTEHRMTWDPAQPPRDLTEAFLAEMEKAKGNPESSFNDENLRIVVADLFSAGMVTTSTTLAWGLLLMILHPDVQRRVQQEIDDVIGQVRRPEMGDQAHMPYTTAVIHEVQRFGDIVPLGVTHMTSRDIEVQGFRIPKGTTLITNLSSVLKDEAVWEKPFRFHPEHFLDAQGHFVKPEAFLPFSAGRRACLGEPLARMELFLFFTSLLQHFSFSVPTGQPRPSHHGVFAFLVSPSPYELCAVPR

[12] = molecular target: FAD-linked sulfhydryl oxidase ALR (Homo sapiens, UniProt P55789); experiment: inhibitors of human ALR sulfhydryl oxidase, dose response, biochemical, H2O2 detection, luminescence, cherry-pick (AID 493248)
Chain of FAD-linked sulfhydryl oxidase ALR (P55789 whole entry): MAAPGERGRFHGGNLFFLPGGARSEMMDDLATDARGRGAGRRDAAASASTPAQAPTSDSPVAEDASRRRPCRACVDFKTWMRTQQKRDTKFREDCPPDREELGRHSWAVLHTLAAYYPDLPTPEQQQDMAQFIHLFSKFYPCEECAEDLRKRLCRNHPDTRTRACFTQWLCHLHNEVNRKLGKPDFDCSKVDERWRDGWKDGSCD

cells = type: functional, cell-based; conditions: HEK-CNG
Galanin receptor type 3 = molecular target: T2, Galanin receptor type 3 (Homo sapiens, UniProt O60755); experiment: Fluorescence-based cell-based primary high throughput dose response assay to identify antagonists of the Galanin Receptor 3 (GalR3).; type: functional
T2 sequence (O60755 whole entry): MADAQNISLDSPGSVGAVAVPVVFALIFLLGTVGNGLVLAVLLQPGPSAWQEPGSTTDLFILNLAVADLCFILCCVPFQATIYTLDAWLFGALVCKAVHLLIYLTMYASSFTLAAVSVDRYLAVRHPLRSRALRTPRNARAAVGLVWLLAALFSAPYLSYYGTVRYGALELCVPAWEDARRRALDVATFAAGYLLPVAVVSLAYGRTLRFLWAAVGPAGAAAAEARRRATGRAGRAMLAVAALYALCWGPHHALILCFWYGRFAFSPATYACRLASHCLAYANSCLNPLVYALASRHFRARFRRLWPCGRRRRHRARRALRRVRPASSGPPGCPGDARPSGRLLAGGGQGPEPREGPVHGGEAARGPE

[13] = Shn3 3'UTR reporter inhibitors, dose response, cell-based, Clone20 osteoblasts, firefly luciferase, cherry-picked (AID 624132); type: functional;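 note: firefly luciferase luminescence from reporter carrying the Shn3 3'UTR in osteoblasts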
[14] = control 3'UTR Renilla luciferase suppression, dose response, counter-screen for Shn3 inhibitor project, cell-based, Clone20-Shn3RL, cherry-picked (AID 624133); type: functional
[15] = HepG2 cell cytotoxicity, dose response, cytotoxicity control for Shn3 inhibitor project, CellTiter-Glo, cherry-picked (AID 624134); type: functional, cell-based
[16] = MC4R antagonists, dose response, counter-screen for LGR2 antagonist project, cell-based, plate reader, cherry pick (AID 743444); type: functional;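 note: transfected HEK 293 cells stimulated with alpha-MSH peptide; potency of inhibitors of the alpha-MSH evoked signal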
[17] = LGR2 antagonists, dose response, cell-based, HEK293, CRE-luciferase reporter, cherry pick, set 2 (AID 743343); type: functional;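 note: transfected cells were stimulated with diluted bursicon conditioned medium after compound addition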

SMILES: COc1ccc(C(=O)Nc2ccc3[nH]c(-c4cccc(OC)c4)cc(=O)c3c2)cc1
IC50 [1]: > 80 µM (inactive)

AC50 [2]: > 20 µM (inactive)
SMILES: CCOC(=O)NCCc1c(C)nc2c(c(C)nn2C(C)(C)C)c1C

SMILES: Oc1ccc2c(c1)nc(O)c1ccccc12
IC50 (H9c2): > 79 µM (inactive)

AC50 [2]: > 20 µM (inactive)
SMILES: COC(=O)CCCCC1=CCC2C(=O)C=C(O)C2C1 (stereo unspecified)

SMILES: COC(=O)c1ccc(C(=O)NC(=S)Nc2ccc3nc(SC)sc3c2)cc1
EC50 [3]: 5.26 µM (active)
EC50 [4]: 5.03 µM (active)

SMILES: COc1ccc(C(=O)Nc2cc(C)nn2-c2nc3ccccc3[nH]2)c(OC)c1
IC50 (H9c2): 7.52 µM (active)
EC50 [5]: > 60 µM (not active)
EC50 [6]: 2.51 µM (active)

SMILES: Cc1ccc2cc(C#N)c(N3CCN(C(=O)c4cccs4)CC3)nc2c1
IC50 (H9c2): > 79 µM (inactive)

SMILES: COc1ccc2nc(O)c(CN(Cc3nnnn3Cc3ccccc3)CC3CCCO3)cc2c1 (stereo unspecified)
AC50 [7]: 7.73 µM (active)
AC50 [8]: 4.18 µM (active)
IC50 (H9c2): 16.5 µM (active)
AC50 [9]: 5.31 µM (active)
AC50 [10]: 33.1 µM (active)

SMILES: Cc1ccc(O)c(CNc2cccc3cccnc23)c1
AC50 (INS1): 13.2 µM (active)
AC50 [2]: > 20 µM (inactive)

SMILES: O=C(O)c1[nH]c2ccccc2c1C(c1cccc(O)c1)c1c(C(=O)O)[nH]c2ccccc12
IC50 (Genome polyprotein): 23.2 µM (active)

IC50 (Genome polyprotein): 36.7 µM (active)
SMILES: O=C(O)CCCN1C(=O)/C(=C\c2ccccc2OCc2ccccc2)SC1=S

IC50 [11]: 2.82 µM (not active)
SMILES: CN(C)c1ccc(C(CNC(=O)c2ccccc2Br)c2c[nH]c3ccccc23)cc1 (stereo unspecified)

SMILES: Cc1c(-c2ccccc2)oc2c(C(=O)OCC(=O)Nc3ccc(C(N)=O)cc3)cccc2c1=O
IC50 (H9c2): > 79 µM (inactive)

IC50 [11]: 8.77 µM (not active)
SMILES: CC(C(=O)NC1CCCC1)N(Cc1ccco1)C(=O)c1snc(C(=O)NC2CCCC2)c1N (stereo unspecified)

AC50 (Cytochrome P450 2D6): 28.2 µM (inconclusive)
IC50 [11]: 1.14 µM (active)
AC50 [12]: 17.2 µM (active)
SMILES: COc1ccc(N2CCC(CNC(=O)Nc3ccc(OC)cc3OC)C2)cc1 (stereo unspecified)

SMILES: O=C(COC(=O)c1[nH]nc2ccccc12)NCCc1ccc(Cl)cc1
EC50 (cells): > 29.9 µM (inactive)
IC50 (Galanin receptor type 3): 2.87 µM (active)

SMILES: Cc1ccc(Oc2nnc(-c3ccccc3)c3ccccc23)cc1
EC50 [3]: 75.7 µM (active)
EC50 [4]: 75.9 µM (active)

IC50 (Genome polyprotein): 50 µM (active)
SMILES: CCn1c(SC)nc(=O)c(C(c2ccc(OC)c(O)c2)c2c(O)n(CC)c(SC)nc2=O)c1O

SMILES: O=C(Cn1[nH]c(=O)c2ccccc2c1=O)N1CCN(S(=O)(=O)c2ccc(Cl)cc2)CC1
IC50 (H9c2): > 79 µM (inactive)

IC50 [11]: 6.18 µM (not active)
SMILES: COc1ccc(NC(=O)Cc2c(SC)c3ccccc3n2Cc2ccccc2)cc1

SMILES: CN1CCN(c2ccc(CNS(=O)(=O)Cc3cccc(C(F)(F)F)c3)cc2)CC1
EC50 (cells): > 29.9 µM (inactive)
AC50 (INS1): 4.36 µM (active)
IC50 (Galanin receptor type 3): 2.08 µM (active)

IC50 [11]: 4.36 µM (active)
SMILES: Cc1ccc(-c2ccc(/C=C3/NC(=O)NC3=O)o2)cc1[N+](=O)[O-]

SMILES: O=C(Nc1cccc(C(F)(F)F)c1)c1sc(Cl)nc1C(F)(F)F
AC50 [13]: 9.06 µM (active)
AC50 [14]: 15.8 µM (active)
IC50 [1]: > 80 µM (inactive)
AC50 [15]: > 70 µM (inactive)

SMILES: Cc1ccc(-c2nc(-c3ccncc3)no2)c(Cl)c1
AC50 [16]: 12.5 µM (active)
AC50 [17]: 10.3 µM (active)

SMILES: Cc1ccc(NC(=O)CSc2nc(-c3ccco3)cc(C(F)(F)F)n2)cc1C
IC50 [1]: > 80 µM (inactive)

SMILES: CC(C)(C)c1ccc(C(=O)Nc2ccc(Oc3cccnc3)nc2)cc1
EC50 (cells): > 29.9 µM (inactive)
IC50 [1]: 50.1 µM (inactive)
IC50 (Galanin receptor type 3): 1.33 µM (active)
